The nature of data set [1]: Induction of cell differentiation in C57BL/6 mouse naive regulatory T cells assessed as increase in […] mRNA level by measuring fold change at 3 uM incubated for 72 hrs by qRT-PCR analysis. Type of data set: functional.
For data set [2], the system named is Mus musculus. Description: Anti-colitis activity against DSS-induced ulcerative colitis C57BL/6 mouse model assessed as increase in Foxp3 mRNA level at 20 mg/kg, po administered once a day for 10 days by qRT-PCR analysis. Type of data set: functional, organism-based. The following applies: time 10.0 day. On the technique in general: Quantitative PCR measures a nucleic acid by following its amplification.

The subject of data set [3] is Mus musculus. Description: Anti-colitis activity against DSS-induced ulcerative colitis C57BL/6 mouse model assessed as amelioration of epithelial change score by measuring loss of goblet cells in colon at 10 to 20 mg/kg, po administered once a day for 10 days by H&E staining based histopathological analysis. Type of data set: functional, organism-based. Particulars: dose 10-20 mg/kg, time 10.0 day.

The test system of data set [4] is Mus musculus. Description: Anti-colitis activity in DSS-induced ulcerative colitis C57BL/6 mouse model assessed as increase in CD4+CD25+Foxp3+ Treg cell ratio in mesenteric lymph nodes at 10 mg/kg, po administered once a day for 10 days by flow cytometric analysis (reference value: 4.5 %). Type of data set: functional. Particulars: time 10 day. A general note: A flow cytometer gives signals particle by particle.

The test system of data set [5] is Mus musculus. Description: Anti-colitis activity against DSS-induced ulcerative colitis C57BL/6 mouse model assessed as amelioration of epithelial change score by measuring crypt abscesses in colon at 10 to 20 mg/kg, po administered once a day for 10 days by H&E staining based histopathological analysis. Type of data set: functional, organism-based. The following applies: dose 10-20 mg/kg, time 10.0 day.

The test system of data set [6] is Mus musculus. Description: Anti-colitis activity against DSS-induced ulcerative colitis C57BL/6 mouse model assessed as increase in IL-10 mRNA level at 20 mg/kg, po administered once a day for 10 days by qRT-PCR analysis. The following applies: time 10.0 day. Type of data set: functional, organism-based.
Data set [7] can be described thus: MRT in Sprague-Dawley rat at 3 mg/kg, iv measured upto 1440 min by LC-MS/MS analysis. Type of data set: ADME, organism-based. Particulars: in vivo.
For data set [8], the system named is Mus musculus. Description: Anti-colitis activity in DSS-induced ulcerative colitis C57BL/6 mouse model assessed as CD4+CD25+Foxp3+ Treg cell percentage in spleen at 10 mg/kg, po administered once a day for 10 days by flow cytometric analysis (reference value: 3.3%). Type of data set: functional. Particulars: time 10 day.

Activity calls are given as the source filed them. The rule behind the calls is not given here.

For orientation: MRT means a mean duration of stay, worked out from the concentration-time curve.

For `COc1cc2c3c(c1)-c1ccc(O)cc1CC3NCC2` (stereo not drawn), the “fold change (FC)” value in data set [1] amounted to 1.4. Also, the result with Mus musculus [2], with Mus musculus [3], in the data set with Mus musculus [5] and with Mus musculus [6] was Active. In addition, the results for the Activity in the data set on Mus musculus [4] and with Mus musculus [8] were 7.4% and 3.2%, respectively. The MRT in data set [7] is 3.07 h.

Values taken from ChEMBL document CHEMBL5338769, “Discovery of Norisoboldine Analogue III11 as a Novel and Potent Aryl Hydrocarbon Receptor Agonist for the Treatment of Ulcerative Colitis” (J Med Chem, 2023).
